Structures can show the parent of a compound that is named as a salt. Where two headings read alike, the source gives them in different places.
Columns and labels:
nanobacteria = assay: Antibiotic sensitivity test by Minimal Inhibition Concentration (MIC), 96-well plates, absorbance at 650 nm; assay type: cell-based
Method: Antibiotic sensitivity tests were carried out by measuring Minimal Inhibition Concentration (MIC), a common practice in clinical microbiology.
The tests were performed in 96-well plates. DMEM (commercial cell culture medium) containing 10% gamma-irradiated fetal bovine serum (FBS)(dose about 3 Mrads; this treatment inactivates nanobacteria in the serum so that the basic medium is sterile) was used as the basic culture medium. These components are commercially available, e.g., from Gibco. The antibiotic stock solutions were sterile filtered through 0.2 micrometer filters. The stock solutions were then serially diluted (into the basal culture medium) to provide a final starting concentration of 0.5 mg/ml and 1:2 dilutions therefrom, unless otherwise specified. For each antibiotic three parallel tests were performed using all the antibiotic dilutions and, additionally, positive and negative control experiments. […] 100 µl of dilutions of the nanobacteria inoculum were added to all wells except the negative controls. The plates were incubated at mammalian cell culture conditions (37° Celsius, 5% carbon dioxide, 95% humid air). The absorbance values at 650 nm were recorded by using an ELISA reader at the start, and at 4, 8, 12, 14 days. […] Calculations were based on absorbance curves where absorbance was plotted against concentration of the antibiotic.

SF-nanobacteria = assay: Chemical disinfection of SF-nanobacteria; assay type: cell-based; design: key to Resistance of SF-nanobacteria to chemical disinfectants (survival) / partial or total detachment on exposure: +++: No effect; ++: Reduced survival; +: Markedly reduced survival; - : No survival; * = partial or total detachment on exposure; details: for Resistance of SF-nanobacteria to chemical disinfectants (survival): survival after subculture compared to diluent only; for effect of chemical disinfection on SF-nanobacteria (in words): exposure at room temperature, then subculture
Text: The cultures were exposed to the disinfectants after removal of the culture medium. For the autoclaving, UV, microwave, and drying treatments, the medium was removed and an equal amount of PBS used instead. For the heat treatments, the SF-nanobacteria were harvested by scraping the culture vessel followed by centrifugation of the medium. The obtained pellet was suspended in PBS and used in the test. After treatments the SF-nanobacteria were subcultured in DMEM medium and the growth followed by light microscopy to see the adherence and typical mineralization.
The concentrations of the chemicals used were those commonly used for disinfection or as instructed by the manufacturer. The chemicals included 70% ethanol, 2% glutaraldehyde, 4% formaldehyde, 0.5% hypochlorite, 3% hydrogen peroxide, 1M hydrochloric acid (HCl), 1M sodium hydroxide (NaOH) , 1% sodium dodecyl sulfate (SDS), 1% Tween 80, 1 % Triton X-100, 3M guanidium-hydrochloride, 3M urea, 1% Virkon® (Antec International Ltd., Suffolk, England; 100% product contains 50% potassium persulfate, 5% sulfaminoic acid), 1.5% Erifenol® (Orion OY, Finland; 100% product contains <5% NaOH, <5% o-benzyl-p-chlorophenol, 5-15% p-chloro-m-cresol), 1% Klorilli® (Orion OY, Finland; 100% product contains sodium metasilicate, sodium N-chloro-p-toluenesulfonamide-3-hydrate and 20,000 ppm active chlorine), and 3% Buraton® (Schülke & Mayr, Germany; 100% product contains 4.5% formaldehyde, 6.8% glyoxal, 1.5% glyoxylic acid, 6% dimethylaurylbenzyl-ammonium chloride). The dilutions to be used were freshly prepared on the day of exposure in sterile distilled water. As a positive control, only diluent was used. Negative control contained only culture medium.
The SF-nanobacteria were exposed to the chemicals for 10 and 30 minutes at room temperature after removal of the culture medium. After exposure, the disinfectant solution was removed and fresh medium added (with a neutralization step in the case of HCl and NaOH). If any significant deattachment occurred, nanobacteria were recovered by centrifugation, and subcultured. The exposed serum-free cultures were passaged 1:10 after 48 hours and the growth was followed by light microscopy for three weeks.

[1] = light or radiation study, 288 h; 90% inhibition, 12 day time point, DMEM with 10% gamma-irradiated FBS; read-out: MIC 90
[2] = light or radiation study, 288 h; read-out: MIC 50
[3] = 50% inhibition, 12 day time point, DMEM with 10% gamma-irradiated FBS
[4] = Exposure time 10 min, room temperature
[5] = Exposure time 30 min, room temperature
[6] = short chain organic acids tested later in culture tests; read-out: MIC50 values

CN[C@H](CC(C)C)C(=O)N[C@H]1C(=O)N[C@@H](CC(N)=O)C(=O)N[C@H]2C(=O)N[C@H]3C(=O)N[C@H](C(=O)N[C@H](C(=O)O)c4cc(O)cc(O)c4-c4cc3ccc4O)[C@H](O)c3ccc(c(Cl)c3)Oc3cc2cc(c3O[C@@H]2O[C@H](CO)[C@@H](O)[C@H](O)[C@H]2O[C@H]2C[C@](C)(N)[C@H](O)[C@H](C)O2)Oc2ccc(cc2Cl)[C@H]1O [Vancomycin]
antinanobacterial effect in the in vitro test (in words) (nanobacteria; in vitro MIC test): effective bacteriostat
IC90 (nanobacteria; [1]): 250 µg/mL
IC50 (nanobacteria; [2]): 130 µg/mL

Cc1ncc([N+](=O)[O-])n1CCO [Metronidasole]
MIC 50 (nanobacteria; [3]): >500 µg/mL

[Na+].[OH-] [1M NaOH, sodium hydroxide]
Resistance of SF-nanobacteria to chemical disinfectants (survival) (SF-nanobacteria; [4]): +++
Resistance of SF-nanobacteria to chemical disinfectants (survival) (SF-nanobacteria; [5]): +++

hypochlorite [0.5% hypochlorite]
Resistance of SF-nanobacteria to chemical disinfectants (survival) (SF-nanobacteria; [4]): +++
Resistance of SF-nanobacteria to chemical disinfectants (survival) (SF-nanobacteria; [5]): +++

CN(C)[C@@H]1C(O)=C(C(N)=O)C(=O)[C@@]2(O)C(O)=C3C(=O)c4c(O)cccc4[C@@](C)(O)[C@H]3C[C@@H]12 [Tetracycline]
IC50 (nanobacteria; light or radiation study, 288 h, read-out: MIC 50): 0.3 µg/mL
IC90 (nanobacteria; light or radiation study, 288 h, read-out: MIC 90): 1.3 µg/mL

CC(O)C(=O)O (stereo not drawn) [lactic acid]
IC50 (nanobacteria; [6]): 10 to 50 mM

O=C1CN(/N=C/c2ccc([N+](=O)[O-])o2)C(=O)N1 [Nitrofurantoin]
IC90 (nanobacteria; [1]): 1.5 µg/mL
IC50 (nanobacteria; [2]): 0.6 µg/mL

CCCCCCCC/C=C\CCCCCCCC(=O)OCCOCC(OCCO)C1OCC(OCCO)C1OCCO (stereo not drawn) [1 % Tween 80, Tween 80]
Resistance of SF-nanobacteria to chemical disinfectants (survival) (SF-nanobacteria; [4]): +++
Resistance of SF-nanobacteria to chemical disinfectants (survival) (SF-nanobacteria; [5]): +++

O=C(O)CN(CCOCCOCCN(CC(=O)O)CC(=O)O)CC(=O)O [EGTA]
antinanobacterial effect in the in vitro test (in words) (nanobacteria; in vitro MIC test): antinanobacterial effects

hydrochloric acid [1M HCl]
partial or total detachment on exposure (SF-nanobacteria; [5]): *
Resistance of SF-nanobacteria to chemical disinfectants (survival) (SF-nanobacteria; [5]): ++
effect of chemical disinfection on SF-nanobacteria (in words) (SF-nanobacteria; listed as Hydrochloric acid): dissolved the apatite layer
effect of chemical disinfection on SF-nanobacteria (in words) (SF-nanobacteria; listed as hydrochloric acid): could not kill nanobacteria

CC(=O)O [acetic acid]
IC50 (nanobacteria; [6]): 10 to 50 mM

CO[C@H]1/C=C/O[C@@]2(C)Oc3c(C)c(O)c4c(O)c(c(/C=N/N5CCN(C)CC5)c(O)c4c3C2=O)NC(=O)/C(C)=C\C=C\[C@H](C)[C@H](O)[C@@H](C)[C@@H](O)[C@@H](C)[C@H](OC(C)=O)[C@@H]1C [Rifampicin]
IC50 (nanobacteria; [2]): > 500 µg/mL

CCC[C@@H]1C[C@@H](C(=O)N[C@@H]([C@H]2O[C@H](SC)[C@H](O)[C@@H](O)[C@H]2O)[C@@H](C)O)N(C)C1 [Lincomycin]
IC50 (nanobacteria; [2]): > 500 µg/mL

CC1(C)S[C@@H]2[C@H](NC(=O)[C@H](N)c3ccccc3)C(=O)N2[C@H]1C(=O)O [Ampicillin]
antinanobacterial effect in the in vitro test (in words) (nanobacteria; in vitro MIC test): weak bacteriostatic effect
IC50 (nanobacteria; [2]): 500 µg/mL

Vitamin D
IC50 (nanobacteria; 50% inhibition, 12 day time point; read-out: MIC 50): > 0.025 mM
antinanobacterial effect in the in vitro test (in words) (nanobacteria; in vitro MIC test): very weak inhibitory effect

CC1=CC(=O)c2ccccc2C1=O [Vitamin K (Menadion), Menadion]
antinanobacterial effect in the in vitro test (in words) (nanobacteria; in vitro MIC test): toxic to nanobacteria
IC50 (nanobacteria; [2]): 2 µg/mL

CC(=O)OCC1=C(C(=O)O)N2C(=O)[C@@H](NC(=O)Cc3cccs3)[C@H]2SC1 [Cephalothin]
IC50 (nanobacteria; [2]): > 500 µg/mL

O=P(O)(O)C(Cl)(Cl)P(=O)(O)O [Chlodronate]
antinanobacterial effect in the in vitro test (in words) (nanobacteria; in vitro MIC test): bacteriocidic effect
IC90 (nanobacteria; [1]): 0.5 µg/mL
IC50 (nanobacteria; [2]): 0.1 µg/mL

CC[C@@H](CO)NCCN[C@@H](CC)CO [Ethambutol]
IC50 (nanobacteria; [2]): > 500 µg/mL

Neomycin
MIC 50 (nanobacteria; [3]): 16 µg/mL
MIC 90 (nanobacteria; 90% inhibition, 12 day time point, DMEM with 10% gamma-irradiated FBS): 30 µg/mL
antinanobacterial effect in the in vitro test (in words) (nanobacteria; in vitro MIC test): bacteriostatic effects at high antibiotic concentrations

O=CCCCC=O [2% glutaraldehyde, glutaraldehyde]
Resistance of SF-nanobacteria to chemical disinfectants (survival) (SF-nanobacteria; [4]): +++
Resistance of SF-nanobacteria to chemical disinfectants (survival) (SF-nanobacteria; [5]): +++

CCCCCCCCCCCCOS(=O)(=O)[O-].[Na+] [1 % SDS, sodium dodecyl sulfate]
Resistance of SF-nanobacteria to chemical disinfectants (survival) (SF-nanobacteria; [4]): +++
Resistance of SF-nanobacteria to chemical disinfectants (survival) (SF-nanobacteria; [5]): +++

N=C(N)N [3M Guanidium HCl, guanidium-hydrochloride]
Resistance of SF-nanobacteria to chemical disinfectants (survival) (SF-nanobacteria; [5]): 0
effect of chemical disinfection on SF-nanobacteria (in words) (SF-nanobacteria): deattachment

COc1cc(Cc2cnc(N)nc2N)cc(OC)c1OC [Trimethoprim]
antinanobacterial effect in the in vitro test (in words) (nanobacteria; in vitro MIC test): bacteriostatic
IC90 (nanobacteria; [1]): 5 µg/mL
IC50 (nanobacteria; [2]): 0.7 µg/mL

C=O [4% formaldehyde, formaldehyde]
Resistance of SF-nanobacteria to chemical disinfectants (survival) (SF-nanobacteria; [4]): +++
Resistance of SF-nanobacteria to chemical disinfectants (survival) (SF-nanobacteria; [5]): +++

Nc1ccc(C(=O)O)c(O)c1 [para-aminosalicylic acid]
MIC value compared with acetylsalicylic acid (nanobacteria): identical with acetylsalicylic acid

Polymyxin B
MIC 50 (nanobacteria; [3]): >500 µg/mL

O=C1O[C@H]([C@@H](O)CO)C(O)=C1O [ascorbic acid]
IC50 (nanobacteria; [6]): 10 to 50 mM

CC(=O)Oc1ccccc1C(=O)O [Acetylsalicylic acid]
IC50 (nanobacteria; 288 h; read-out: MIC 50): 500 µg/mL
antinanobacterial effect in the in vitro test (in words) (nanobacteria; in vitro MIC test): weak

O=C(N[C@H](CO)[C@H](O)c1ccc([N+](=O)[O-])cc1)C(Cl)Cl [Chloramphenicol]
IC50 (nanobacteria; [2]): > 500 µg/mL

NC(=O)c1cnccn1 [Pyrazinamide]
IC50 (nanobacteria; [2]): > 500 µg/mL

CC(O)(P(=O)(O)O)P(=O)(O)O [Ethidronate]
antinanobacterial effect in the in vitro test (in words) (nanobacteria; in vitro MIC test): bacteriocidic effect
IC90 (nanobacteria; [1]): 0.5 µg/mL
IC50 (nanobacteria; [2]): 0.1 µg/mL

O=C(O)CC(O)(CC(=O)O)C(=O)O [Citrate]
IC90 (nanobacteria; 288 h; 90% inhibition, 12 day time point; read-out: MIC 90): 1 mM
IC50 (nanobacteria; 288 h; read-out: MIC 50): 0.2 mM
antinanobacterial effect in the in vitro test (in words) (nanobacteria; in vitro MIC test): effective antinanobacterial agent

[H]/N=C(/N)N[C@H]1[C@H](O)[C@@H](O)[C@H](O[C@@H]2O[C@@H](C)[C@](O)(C=O)[C@H]2O[C@@H]2O[C@@H](CO)[C@H](O)[C@@H](O)[C@@H]2NC)[C@@H](N/C(N)=N\[H])[C@@H]1O [Streptomycin]
antinanobacterial effect in the in vitro test (in words) (nanobacteria; in vitro MIC test): bacteriostatic effects at high antibiotic concentrations
IC50 (nanobacteria; [2]): > 500 µg/mL

Penicillin
MIC 50 (nanobacteria; [3]): >500 µg/mL

CC[C@H]1OC(=O)[C@H](C)[C@@H](O[C@H]2C[C@@](C)(OC)[C@@H](O)[C@H](C)O2)[C@H](C)[C@@H](O[C@@H]2O[C@H](C)C[C@H](N(C)C)[C@H]2O)[C@](C)(OC)C[C@@H](C)C(=O)[C@H](C)[C@@H](O)[C@]1(C)O [Clarithromycin]
IC50 (nanobacteria; [2]): > 500 µg/mL

— EP1094711B1, “METHODS FOR ERADICATION OF NANOBACTERIA” (Nanobac Oy, priority 1998, dated 2000)
